# Experimental data published in patent US20230374460A1, “Methods for Cardiac Differentiation of Human Induced Pluripotent Stem Cells” (The Trustees of Columbia University in the City of New York, priority 2015, published 2023).
# Assays:
# LQTS cardiomyocytes = test: Dual optical recording of action potentials (ArcLight) and calcium handling (R-GECO1) in LQTS (Timothy syndrome) iPSC-derived cardiomyocytes; format: cell-based, human
# Procedure: Plasmids of R-GECO1 (Addgene #32462) (Zhao et al., 2011) and ArcLight (Addgene #36857) (Jin et al., 2012) were used as template to amplify the cDNA using Phusion polymerase (Thermo Scientific) with primer sets that allowed us to add restriction enzyme site EcoRI and Kozak sequence before the start codon (without nuclear localization signal for R-GECO) and another site XhoI after the stop codon. These PCR products were subcloned into lentiviral vector that was prepared from LV-SD-Cre (Addgene, #12105, no longer available currently) digested with EcoRI and XhoI. XL-10 Gold competent cells (Agilent) transformed with these LV-SD vectors were inoculated at 24-30° C. The purified LV-SD vectors were transfected together with pCMV-dR8.2 dvpr and pCMV-VSV-G (Addgene #8455 & 8454) as follow: HEK293T cells that were plated at 5×10^5 cell/ml (2 ml per well) one day before were transfected with total 3.4 μg per well (ratio, LV-SD:dR8.2:VSV-G=8:8:1) and LF-2K (8.0 μl per well) in a 6-well plate. The next day the media was changed. Two days after transfection, culture media was harvested (again fresh media was added to transfected HEK 293T cells) and filtered using 0.45 μm PES filter (VWR) and then directly added to wells containing monolayer cardiomyocytes (at 2-3 weeks after inducing cardiac differentiation). No polybrene was used for viral infection. Seventy-two hours after transfection, the culture media was again collected and used as secondary infection. The next day media was changed to DF5 media for infected cardiomyocytes. In case of serum-free condition, Lenti-X concentrator (TaKaRa/Clontech) was used for media change, following the manufacture's instruction. Three to five days after the secondary infection, monolayer cardiomyocytes were transferred to 35 mm glass bottom culture dishes (7 mm diameter, No. 1.5 glass) coated with Geltrex. Nikon Ti-U epi-fluorescent microscope connected to EMCDD Digital Monochrome camera (Evolve, EVO-512-M-FW-16-AC, 512×512, Photometrics) was used with LED light source (Lumencore Spectra X 6 line LED system, with Chroma excitation mounted filters, ET395/25x, ET470/30, ET550/15x, ET640/30x;) with dichroic mirror and emission filter (dichroic mirror, D/F/Cy3/Cy5pc; emission, ET430/36 513/44 595/41 719/105) operated by MetaFlour (Molecular Devices, acquisition: exposure time, 20 ms; gain 3 (6×); transfer speed, 5 MHz, Image size: 512×512; binning, 1.0). Temperature of the bath solution was maintained at approximately 35° C. using a digital temperature controller (TC-344B, Warner Instruments) for the duration of the experiment. Nikon objective lens 40× (CF1 S Fluor, NA 0.90) for cell clusters and 60× (CFI Plan Apo Lambda H, NA 1.40) for single cells were used to capture two fluorescent signals as R-GECO1 (illumination control. 10 in 0-255, cy3) and ArcLight (150 in 0-255, FITC, 4 or 8 frames per sec). Isoproterenol (10 μM, Sigma Aldrich) and R-roscovitine (0.5 and 5 μM) were used for fluorescent imaging. The effect of serum concentration on the imaging using ArcLight and R-GECO1 in control and patient cells was not observed at approximately 35° C. […] Daily imaging in cardiomyocytes infected at day 15 was conducted for 18 days (day 23-40). Additional recordings were performed at day 90 to examine low long ArcLight and R-GECO1 signals are available.
# A dual optical imaging system using two genetically encoded indicators, ArcLight for voltage and R-GECO1 for calcium transients, has been developed to efficiently phenotype the patient specific iPSC-derived cardiomyocytes derived from the serum containing protocol (Song, et al. Stem Cells Transl Med. 4(5):468-75 (2015)). […] Those phenotypes of Timothy syndrome patient iPSCs derived cardiomyocytes can be rescued by 5 μM Roscovitine treatment (FIGS. 2B-2C and FIG. 5).
# [1] = system: control (Ctrl) cardiomyocytes; test: Dual optical recording of action potentials (ArcLight) and calcium handling (R-GECO1) in control iPSC-derived cardiomyocytes; format: cell-based, human; settings: 5 μM, 10 min
# Procedure: Plasmids of R-GECO1 (Addgene #32462) (Zhao et al., 2011) and ArcLight (Addgene #36857) (Jin et al., 2012) were used as template to amplify the cDNA using Phusion polymerase (Thermo Scientific) with primer sets that allowed us to add restriction enzyme site EcoRI and Kozak sequence before the start codon (without nuclear localization signal for R-GECO) and another site XhoI after the stop codon. These PCR products were subcloned into lentiviral vector that was prepared from LV-SD-Cre (Addgene, #12105, no longer available currently) digested with EcoRI and XhoI. XL-10 Gold competent cells (Agilent) transformed with these LV-SD vectors were inoculated at 24-30° C. The purified LV-SD vectors were transfected together with pCMV-dR8.2 dvpr and pCMV-VSV-G (Addgene #8455 & 8454) as follow: HEK293T cells that were plated at 5×10^5 cell/ml (2 ml per well) one day before were transfected with total 3.4 μg per well (ratio, LV-SD:dR8.2:VSV-G=8:8:1) and LF-2K (8.0 μl per well) in a 6-well plate. The next day the media was changed. Two days after transfection, culture media was harvested (again fresh media was added to transfected HEK 293T cells) and filtered using 0.45 μm PES filter (VWR) and then directly added to wells containing monolayer cardiomyocytes (at 2-3 weeks after inducing cardiac differentiation). No polybrene was used for viral infection. […]
# human iPSC lines = test: Monolayer cardiac differentiation of iPSCs into beating cardiomyocytes (serum-containing protocol, optimisation of GSK3 inhibitor dose and oxygen level); format: cell-based; settings: single use, 20% O2
# Text: CHIR99021 (GSK3 inhibitor, #1386, Lot #6 & #7, Axon MedChem) and BIO (GSK3 inhibitor IX, #361550, Lot #D00148116, Calbiochem) (Minami et al., Cell reports 2, 1448-1460(2012)), IWP-3 (Wnt inhibitor, #SML0533, Lot #102m4613V, Sigma-Aldrich) resolved in Dimethyl Sulfoxide (DMSO, #276855, Sigma-Aldrich) were used for monolayer differentiation of iPSCs plated on Geltrex in 6-well plate or 10 cm dish. To prepare differentiating culture media, only one freeze and thaw cycle was confirmed for all aliquots of small compounds CHIR99021 and BIO and recombinant human growth factors. Twice freeze and thaw cycle was confirmed for IWP-3 aliquots. For the differentiation protocol with serum-containing media, DF20/5 media was used for cardiac differentiation and culture: DMEM/F-12 (with GlutaMax I) containing 20% or 5% Hyclone FBS, 1% non-essential amino acid, P.S. and 0.1 mM bME. Additional D-glucose was added to only DF20 as high glucose media (final 4.5 g/l) to enhance mesoderm differentiation from Day 1 to Day 4. For BIO and CHIR treatment, media was changed everyday. For IWP-3 treatment, media was changed every other day. DF5 media was used for the maintenance of cardiomyocytes after differentiation (Day 11˜) and media was changed every other day. Changed media using DF20 with small compounds required ˜3 ml per well in 6-well and ˜15 ml per 10 cm dish every other day since adding 2-2.5 ml of fresh media to a well of 6-well plates was not sufficient for high confluence of cells during differentiation into cardiomyocytes, resulting in lower efficiency of cardiac differentiation. […] For the differentiation protocol without serum containing media, Iscove's Modified Dulbecco Media (IMDM, Sigma-Aldrich) with B27 supplement (-minus insulin version, Life Technologies) was used for mesoderm differentiation (Day 1 to Day 3) and IMDM media with B27 (regular version, Life Technologies) was used for further differentiation and maintenance (Day 4˜). […] For the comparison between different serum free monolayer cardiac differentiation protocols (FIG. 3), RPMI1640 media (Sigma-Aldrich) and Activin A and BMP4 (R & D Systems), B27 supplement (both regular & minus insulin version, Life Technologies), human albumin (Sigma) and L-ascorbic acid 2-phosphate (Sigma-Aldrich) were used to make the corresponding differentiation media. In case of using DMEM/F-12 media for serum-free protocol, all cells died during early stage of cardiac differentiation (data not shown). All images and movies were taken in the tissue culture room using TS100F-LED microscope operated by Nikon NIS-Elements with objectives (4×, CFI Plan Fluor DL, NA 0.13; 10×, CFI Achromat ADL, NA0.25; 20×, CFI Achromat LWD ADL, NA 0.4, Nikon). Antibodies to sarcomeric alpha-actinin (clone #EA-53, Sigma-Aldrich) were used for immunocytochemistry of human cardiomyocytes (3-4 weeks later after cardiac differentiation). The cell size was analyzed blindly by E. Uche-Anya using Fiji software (FIG. 6). FACS analyses were performed in Columbia Center for Translational Immunology (CCTI) using a BD FACS Calibur using control and patient cardiomyocytes at day 19. Standard protocol for FACS was used first with 0.5% saponin (Sigma-Aldrich) for permeabilization at blocking step and next with sarcomeric alpha-actinin antibody (Sigma-Aldrich, clone #EA-53, 1/200 dilution) or cardiac troponin T (clone #13-11, Thermo Scientific, 1/500 dilution) and goat anti-mouse Alexa Fluor 488 secondary antibody (Life Technologies, 1/500) in FACS buffer (0.1% saponin, 2% FBS and 2 mM EDTA in Hanks buffer in HEPES, HBSS). The FACS data analyses were blindly performed by J. Feng. The identical cell samples were also used before fixation, for RNA/cDNA preparation and gene expression profiling using qPCR. Dimethyl Sulfoxide (DMSO) quality is critical to get reproducible results using small compounds, especially CHIR99021 (CHIR, #1386, lot #6 & #7, Axon MedChem). DMSO should be kept from ambient air. […]
# [2] = monolayer of LQTS cardiomyocytes, serum-containing protocol (FIG. 5D)
smiles,measurement,setting,value
CC[C@H](CO)Nc1nc(NCc2ccccc2)c2ncn(C(C)C)c2n1 [Roscovitine],"phenotypes in action potentials, channel inactivation and calcium handling in Timothy syndrome cardiomyocytes",LQTS cardiomyocytes,rescued the phenotypes
same,APD90,"LQTS cardiomyocytes; 5 μM, 10 min, LQTS cardiomyocytes, serum-free condition (FIG. 5H)",positive effects
same,number of spontaneous calcium transients,"LQTS cardiomyocytes; 5 μM, 10 min, LQTS cardiomyocytes, serum-free condition (FIG. 5I)",positive effects
same,phenotypes of Timothy syndrome cardiomyocytes,"LQTS cardiomyocytes; 5 μM, cardiomyocytes derived using the serum-free protocol",rescued the phenotypes
same,phenotypes (prolonged action potentials and abnormal calcium handling) of Timothy syndrome cardiomyocytes,"LQTS cardiomyocytes; 5 μM, cardiomyocytes from the serum-containing protocol",rescued
same,irregular calcium handling and electrical activities,"LQTS cardiomyocytes; 5 μM, single LQTS CMs, before, during and after treatment (FIG. 2B)",prevented
same,"action potential (APD90, 90% from peak)","LQTS cardiomyocytes; monolayer of LQTS cardiomyocytes, serum-containing protocol (FIG. 5C)",shortened
same,beating rate,LQTS cardiomyocytes; [2],increased
same,number of spontaneous calcium transients,LQTS cardiomyocytes; [2],increased
same,prolonged action potentials,"LQTS cardiomyocytes; single LQTS cardiomyocytes, n=12, 4 lines from two patients (FIG. 2C)",rescued
same,APD90,[1]; serum-free protocol (FIG. 5F),no effect
same,number of spontaneous calcium transients,[1]; serum-free protocol (FIG. 5G),no effect
Cc1c[nH]c(-c2cnc(NCCNc3ccc(C#N)cn3)nc2-c2ccc(Cl)cc2Cl)n1 [CHIR],beating cells,human iPSC lines; CHIR 5 μM,provided beating cardiomyocytes and Yes
same,"beating cells, where in the well",human iPSC lines; CHIR 5 μM,only around the center of well
same,beating cells,human iPSC lines; CHIR 10 μM,No
same,beating cells,human iPSC lines; CHIR 15 μM,No
same,beating cells,human iPSC lines; CHIR 20 μM,No
"O=C1Nc2cc(Br)ccc2/C1=C1/Nc2ccccc2/C1=N\O [BIO, (2′ Z,3′ £)-6-Bromoindirubin-3′-oxime]",beating cells,human iPSC lines; BIO 1 μM,provided beating cardiomyocytes and Yes
same,beating cells,human iPSC lines; BIO 2 μM,Yes
same,"beating cells, where in the well",human iPSC lines; BIO 2 μM,only around the edge of well
same,beating cells,human iPSC lines; BIO 4 μM,No
same,beating cells,human iPSC lines; BIO 8 μM,No
